# Measurements taken from patent US6627793B2, “Low temperature-inducible wheat WCS120 gene promoter” (Université du Québec A Montréal, priority 1998, dated 2003).
# Key:
# [1] = tested on: WCS120 family of proteins; test: In vivo okadaic acid treatment of wheat shoots at low temperature, western blot densitometry of WCS120 proteins; set-up: species or system wheat (Triticum aestivum L. cv Fredrick); conditions: 4° C.
# Method: FIGS. 6. a) to c) Effect of in vivo okadaic acid treatment on the accumulation of the cold-inducible WCS120 family of proteins. Wheat seedlings were incubated at low temperature without or with different concentrations of okadaic acid (OA), and soluble proteins were extracted and separated by SDS-PAGE. a) Immunodetection of the WCS120 protein family in the soluble extracts. Following the treatment, the proteins were analyzed by western blot using the anti-WCS120 antibody. b) SDS-PAGE gel stained with Coomassie blue showing equal protein loading. c) Densitometric quantification of the individual protein bands of 50, 66 and 200 kDa of the immunoblot shown in a. The 50 kDa protein is encoded by Wcs120 gene. Values represent averages and standard deviations of the integrated intensity of the pixels for each protein band, excluding the background, from at least three independent experiments.
# Wheat shoots were cut and immediately incubated in water or in the presence of the phosphatase inhibitor okadaic acid (OA) at 10, 100 or 1000 nM. The plants were left at room temperature for 4 hours to allow translocation of the inhibitor, then transferred to 4° C. for 24 hours, and the total soluble proteins were extracted as described (Limin, A. E., supra). […] The signal intensity for individual protein bands on the X-ray films was quantified with a Personal Densitometer SI (Molecular Dynamics) using the ImageQuaNT version 4.2 software. […]
# To determine the role of protein phosphatases on the expression of Wcs120 gene, wheat seedlings were incubated at 4° C. in the presence of okadaic acid (a potent and specific inhibitor of protein phosphatases PP1 and PP2A) (Smith, R. D., et al. (1996) Annu. Rev. Plant. Physiol. Plant. Mol. Biol. 47:101-125). Soluble proteins were extracted and the accumulation of the WCS120 family of proteins was analyzed by quantitative densitometry of western blots. […]
# [2] = tested on: PKC-like activity in CA nuclear extracts; test: PKC activity in nuclear extracts with the PKC-specific substrate peptide MARCKS; type: biochemical, wheat
# Method: FIGS. 5. a) to c) Analysis of endogenous kinases in nuclear extracts from non-acclimated (NA) and cold-acclimated (CA) wheat plants. a) In vitro phosphorylation of nuclear proteins. Equal amounts of nuclear proteins (10 μg) were incubated with [γ-^32P]ATP and separated by SDS-PAGE. The gel was dried and exposed to a X-ray film. b) Immunodetection of a PKCg homolog in nuclear and soluble extracts from non-acclimated (NA) and cold-acclimated (CA) plants. Equal amounts of proteins (10 μg) were separated by SDS-PAGE, blotted onto nitrocellulose membranes and probed with the anti-PKCg antibody. CA2 and CA7 indicate soluble extracts from 2 and 7 days cold-acclimated plants. c) PKC activity was measured in the nuclear extracts with the peptide MARCKS as the PKC-specific substrate and containing the indicated chemicals. […] Aliquotes of each reaction were separated by SDS-PAGE and visualized by autoradiography. PS, phosphatydylserine; DAG, diacylglycerol.
# To determine the qualitative changes in the phosphorylation pattern following cold treatment, the nuclear extracts from both NA and CA plants (10 μg protein) were incubated for 5 to 40 min at 30° C. in binding buffer (Harter, K., supra) containing 1 mM MgCl2, 50 μCi [γ-^32P]ATP and 1 mM CaCl2. At specified intervals, reactions were stopped by adding one volume of 2× SDS-sample buffer and the proteins were separated by SDS-PAGE. Gels were dried, exposed to X-ray film and the signal intensity of individual bands was determined by quantitative densitometry. To accurately quantify the Ca^2+-dependent and Ca^2+-independent nuclear kinase activities, the incorporation of ^32P on histone III-S, casein or the PKC-specific substrate peptide MARCKS (Biomol; Blackshear, P. J. (1993) J. Biol. Chem. 268: 1501-1504) was determined as described elsewhere (Kitano, T., et al. (1986) Methods Enzymol. 124: 349-352). Histone III-S and casein are suitable substrates for phosphorylation assays, particularly when dealing with a crude mixture of uncharacterized protein kinases. […]
# [3] = 1 μM okadaic acid, densitometric analysis
molecule,measurement,setting,value
C=C1[C@@H](O)[C@@H]2O[C@]3(CC[C@H](/C=C/[C@@H](C)[C@@H]4CC(C)=C[C@@]5(O[C@H](C[C@@](C)(O)C(=O)O)CC[C@H]5O)O4)O3)CC[C@H]2O[C@@H]1[C@@H](O)C[C@H](C)[C@H]1O[C@@]2(CCCCO2)CC[C@H]1C [okadaic acid],increase of the 50 and 66 kDa proteins with respect to plants exposed to low temperature without inhibitor,[1]; [3],2.2 fold
same,increase of the 200 kDa protein with respect to plants exposed to low temperature without inhibitor,[1]; [3],9 fold
same,"accumulation of the 50, 66 and 200 kDa WCS120 proteins at low temperature","[1]; several concentrations of OA (10, 100 or 1000 nM)",significantly stimulated
O=C(O)CN(CCOCCOCCN(CC(=O)O)CC(=O)O)CC(=O)O [EGTA],inhibition of the phosphorylation of MARCKS,[2]; 0.5 mM EGTA,only partial inhibition
Calphostin C,"inhibition of MARCKS phosphorylation (32P incorporation, scintillation counting)",[2]; 0.5 mM Calphostin C,complete inhibition
same,inhibition of MARCKS phosphorylation,[2]; Calphostin C at 0.1 µM,did not significantly inhibit
